From patent publication US12599136B2, “Substituted isophthalic acid diamides and their use as herbicides” (Bayer Aktiengesellschaft, priority 2020, dated 2026)

What was measured:
Format in all cases: in vivo
Echinochloa crus-galli [1] = assay: Pre-emergence herbicidal action against ECHCG; details: for Pre-emergence action against ECHCG: visual score after 3 weeks vs untreated controls; for Herbicidal action against ECHCG: comparative experiment, pre-emergence
Method in brief: (§1)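 Sandy loam pots, seeds covered with soil, then surface-treated with WP or EC formulations at 600–800 l/ha water plus 0.2% wetting agent. Greenhouse, 3 weeks. Percent damage vs untreated controls.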

Matricaria inodora [2] = assay: Pre-emergence herbicidal action against MATIN; details: for Pre-emergence action against MATIN: visual score after 3 weeks vs untreated controls
Method in brief: as §1

Setaria viridis [3] = assay: Pre-emergence herbicidal action against SETVI; details: for Herbicidal action against SETVI: comparative experiment
Method in brief: as §1

Echinochloa crus-galli [4] = assay: Post-emergence herbicidal action against ECHCG; details: visual assessment about 3 weeks after treatment
Method in brief: (§2)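 Visual % rating (0% = as untreated, 100% = dead) ~3 wk after spraying one-leaf-stage plants grown in sandy loam; WP/EC in water at 600–800 l/ha, 0.2% wetting agent.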

Veronica persica [5] = assay: Pre-emergence herbicidal action against VERPE
Method in brief: as §1

Viola tricolor [6] = assay: Pre-emergence herbicidal action against VIOTR; details: 320 g/ha
Method in brief: as §1

Alopecurus myosuroides [7] = assay: Pre-emergence herbicidal action against ALOMY; details: for Pre-emergence action against ALOMY: visual score after 3 weeks vs untreated controls
Method in brief: as §1

Abutilon theophrasti [8] = assay: Pre-emergence herbicidal action against ABUTH; details: for Pre-emergence action against ABUTH: visual score after 3 weeks vs untreated controls
Method in brief: as §1

Alopecurus myosuroides [9] = assay: Post-emergence herbicidal action against ALOMY
Method in brief: as §2

Cyperus esculentus [10] = assay: Post-emergence herbicidal action against CYPES; details: visual assessment about 3 weeks after treatment
Method: (§3) Seeds of monocotyledonous and dicotyledonous weed and crop plants are laid out in sandy loam soil in wood-fiber pots, covered with soil and cultivated in a greenhouse under good growth conditions. 2 to 3 weeks after sowing, the test plants are treated at the one-leaf stage. The compounds of the invention, formulated in the form of wettable powders (WP) or as emulsion concentrates (EC), are then sprayed onto the green parts of the plants in the form of an aqueous suspension or emulsion at a water application rate equivalent to 600 to 800 l/ha, with addition of 0.2% wetting agent. After the test plants have been left to stand in the greenhouse under optimal growth conditions for about 3 weeks, the action of the preparations is assessed visually in comparison to untreated controls (herbicidal action in percent (%): 100% activity=the plants have died, 0% activity=like control plants). […] The tables below illustrate, in an illustrative manner, the post-emergence herbicidal action of the compounds of the invention, the herbicidal activity being stated in percent.

Setaria viridis [11] = assay: Post-emergence herbicidal action against SETVI; details: for Post-emergence action against SETVI in %: visual assessment about 3 weeks after treatment
Method in brief: as §2

Stellaria media [12] = assay: Post-emergence herbicidal action against STEME; details: for Post-emergence action against STEME in %: visual assessment about 3 weeks after treatment
Method in brief: as §2

Hordeum murinum [13] = assay: Pre-emergence herbicidal action against HORMU; details: visual score after 3 weeks vs untreated controls
Method in brief: as §1

Avena fatua [14] = assay: Post-emergence herbicidal action against AVEFA; details: for Post-emergence action against AVEFA in %: visual assessment about 3 weeks after treatment
Method in brief: as §2

Amaranthus retroflexus [15] = assay: Post-emergence herbicidal action against AMARE; details: visual assessment about 3 weeks after treatment
Method in brief: as §2

Hordeum murinum [16] = assay: Post-emergence herbicidal action against HORMU
Method: as §3

Lolium rigidum [17] = assay: Pre-emergence herbicidal action against LOLRI
Method in brief: as §1

Stellaria media [18] = assay: Pre-emergence herbicidal action against STEME
Method in brief: as §1

Matricaria inodora [19] = assay: Post-emergence herbicidal action against MATIN; details: for Post-emergence action against MATIN in %: visual assessment about 3 weeks after treatment
Method in brief: as §2

Abutilon theophrasti [20] = assay: Post-emergence herbicidal action against ABUTH
Method in brief: as §2

Polygonum convolvulus [21] = assay: Pre-emergence herbicidal action against POLCO; details: 320 g/ha
Method in brief: as §1

Pharbitis purpurea = assay: Post-emergence herbicidal action against PHBPU; details: 80 g/ha, visual assessment about 3 weeks after treatment
Method in brief: as §2

Avena fatua [22] = assay: Pre-emergence herbicidal action against AVEFA; details: for Pre-emergence action against AVEFA: visual score after 3 weeks vs untreated controls
Method in brief: as §1

Viola tricolor [23] = assay: Post-emergence herbicidal action against VIOTR
Method in brief: as §2

Lolium rigidum [24] = assay: Post-emergence herbicidal action against LOLRI
Method: as §3

Veronica persica [25] = assay: Post-emergence herbicidal action against VERPE; details: visual assessment about 3 weeks after treatment
Method in brief: as §2

Amaranthus retroflexus [26] = assay: Pre-emergence herbicidal action against AMARE; details: for Pre-emergence action against AMARE: visual score after 3 weeks vs untreated controls; for Herbicidal action against AMARE: comparative experiment, pre-emergence
Method in brief: as §1

Cyperus esculentus [27] = assay: Pre-emergence herbicidal action against CYPES; details: for Pre-emergence action against CYPES: visual score after 3 weeks vs untreated controls; for Herbicidal action against CYPES: comparative experiment, pre-emergence
Method in brief: as §1

Polygonum convolvulus [28] = assay: Post-emergence herbicidal action against POLCO; details: 80 g/ha, visual assessment about 3 weeks after treatment
Method in brief: as §2

[29] = comparative experiment, pre-emergence, 20 g a.i./ha
[30] = comparative experiment, pre-emergence, 80 g a.i./ha
[31] = comparative experiment, 5 g a.i./ha

CN(C)C(=O)c1c(C(F)(F)F)ccc(C(=O)Nc2nnnn2C)c1Cl [Example 1-123]
Pre-emergence action against ECHCG (Echinochloa crus-galli [1]; 20 g/ha): 90% | Pre-emergence action against ECHCG (Echinochloa crus-galli [1]; 80 g/ha): 100% | Pre-emergence action against ECHCG (Echinochloa crus-galli [1]; 320 g/ha): 100% | Herbicidal action against ECHCG (Echinochloa crus-galli [1]; 20 g a.i./ha): 90 | Herbicidal action against ECHCG (Echinochloa crus-galli [1]; 80 g a.i./ha): 100 | Pre-emergence action against MATIN (Matricaria inodora [2]; 80 g/ha): 90% | Pre-emergence action against MATIN (Matricaria inodora [2]; 320 g/ha): 90% | Herbicidal action against MATIN (Matricaria inodora [2]; [29]): 70 | Pre-emergence action against SETVI (Setaria viridis [3]; 20 g/ha): 90% | Pre-emergence action against SETVI (Setaria viridis [3]; 80 g/ha): 100% | Pre-emergence action against SETVI (Setaria viridis [3]; 320 g/ha): 100% | Herbicidal action against SETVI (Setaria viridis [3]; 20 g a.i./ha): 90 | Herbicidal action against SETVI (Setaria viridis [3]; 80 g a.i./ha): 100 | Post-emergence action against ECHCG in % (Echinochloa crus-galli [4]; 5 g/ha): 100% | Post-emergence action against ECHCG in % (Echinochloa crus-galli [4]; 20 g/ha): 100% | Post-emergence action against ECHCG in % (Echinochloa crus-galli [4]; 80 g/ha): 100% | Pre-emergence action against VERPE (Veronica persica [5]; 80 g/ha): 80% | Pre-emergence action against VERPE (Veronica persica [5]; 320 g/ha): 90% | Pre-emergence action against VIOTR (Viola tricolor [6]): 90% | Pre-emergence action against ALOMY (Alopecurus myosuroides [7]; 80 g/ha): 80% | Pre-emergence action against ALOMY (Alopecurus myosuroides [7]; 320 g/ha): 100% | Herbicidal action against ALOMY (Alopecurus myosuroides [7]; [29]): 70 | Pre-emergence action against ABUTH (Abutilon theophrasti [8]; 20 g/ha): 80% | Pre-emergence action against ABUTH (Abutilon theophrasti [8]; 80 g/ha): 100% | Pre-emergence action against ABUTH (Abutilon theophrasti [8]; Dosage column 320 g/ha (heading prints 3200 g/ha)): 100% | Herbicidal action against ABUTH (Abutilon theophrasti [8]; [30]): 100 | Post-emergence action against ALOMY (Alopecurus myosuroides [9]; 5 g/ha): 100% | Post-emergence action against ALOMY (Alopecurus myosuroides [9]; 20 g/ha): 100% | Post-emergence action against ALOMY (Alopecurus myosuroides [9]; 80 g/ha): 100% | Herbicidal action against ALOMY (Alopecurus myosuroides [9]; [31]): 100 | Post-emergence action against CYPES in % (Cyperus esculentus [10]; 5 g/ha): 80% | Post-emergence action against CYPES in % (Cyperus esculentus [10]; 20 g/ha): 90% | Post-emergence action against CYPES in % (Cyperus esculentus [10]; 80 g/ha): 90% | Post-emergence action against SETVI in % (Setaria viridis [11]; 5 g/ha): 100% | Post-emergence action against SETVI in % (Setaria viridis [11]; 20 g/ha): 100% | Post-emergence action against SETVI in % (Setaria viridis [11]; 80 g/ha): 100% | Herbicidal action against SETVI (Setaria viridis [11]; [31]): 100 | Post-emergence action against STEME in % (Stellaria media [12]; 5 g/ha): 100% | Post-emergence action against STEME in % (Stellaria media [12]; 20 g/ha): 100% | Post-emergence action against STEME in % (Stellaria media [12]; 80 g/ha): 100% | Herbicidal action against STEME (Stellaria media [12]; [31]): 100 | Pre-emergence action against HORMU (Hordeum murinum [13]; 80 g/ha): 90% | Pre-emergence action against HORMU (Hordeum murinum [13]; 320 g/ha): 100% | Post-emergence action against AVEFA in % (Avena fatua [14]; 5 g/ha): 80% | Post-emergence action against AVEFA in % (Avena fatua [14]; 20 g/ha): 90% | Post-emergence action against AVEFA in % (Avena fatua [14]; 80 g/ha): 100% | Herbicidal action against AVEFA (Avena fatua [14]; [31]): 80 | Post-emergence action against AMARE in % (Amaranthus retroflexus [15]; 5 g/ha): 100% | Post-emergence action against AMARE in % (Amaranthus retroflexus [15]; 20 g/ha): 100% | Post-emergence action against AMARE in % (Amaranthus retroflexus [15]; 80 g/ha): 100% | Post-emergence action against HORMU in % (Hordeum murinum [16]; 5 g/ha): 80% | Post-emergence action against HORMU in % (Hordeum murinum [16]; 20 g/ha): 80% | Post-emergence action against HORMU in % (Hordeum murinum [16]; 80 g/ha): 100% | Pre-emergence action against LOLRI (Lolium rigidum [17]; 80 g/ha): 80% | Pre-emergence action against LOLRI (Lolium rigidum [17]; 320 g/ha): 100% | Pre-emergence action against STEME (Stellaria media [18]; 20 g/ha): 90% | Pre-emergence action against STEME (Stellaria media [18]; 80 g/ha): 90% | Pre-emergence action against STEME (Stellaria media [18]; 320 g/ha): 90% | Post-emergence action against MATIN in % (Matricaria inodora [19]; 5 g/ha): 80% | Post-emergence action against MATIN in % (Matricaria inodora [19]; 20 g/ha): 80% | Post-emergence action against MATIN in % (Matricaria inodora [19]; 80 g/ha): 100% | Herbicidal action against MATIN (Matricaria inodora [19]; [31]): 80 | Post-emergence action against ABUTH (Abutilon theophrasti [20]; 5 g/ha): 100% | Post-emergence action against ABUTH (Abutilon theophrasti [20]; 20 g/ha): 100% | Post-emergence action against ABUTH (Abutilon theophrasti [20]; 80 g/ha): 100% | Herbicidal action against ABUTH (Abutilon theophrasti [20]; [31]): 100 | Pre-emergence action against POLCO (Polygonum convolvulus [21]): 90% | Post-emergence action against PHBPU in % (Pharbitis purpurea): 100% | Pre-emergence action against AVEFA (Avena fatua [22]; 80 g/ha): 90% | Pre-emergence action against AVEFA (Avena fatua [22]; 320 g/ha): 100% | Herbicidal action against AVEFA (Avena fatua [22]; [30]): 90 | Post-emergence action against VIOTR in % (Viola tricolor [23]; 5 g/ha): 80% | Post-emergence action against VIOTR in % (Viola tricolor [23]; 20 g/ha): 100% | Post-emergence action against VIOTR in % (Viola tricolor [23]; 80 g/ha): 100% | Post-emergence action against LOLRI in % (Lolium rigidum [24]; 20 g/ha): 80% | Post-emergence action against LOLRI in % (Lolium rigidum [24]; 80 g/ha): 90% | Post-emergence action against VERPE in % (Veronica persica [25]; 5 g/ha): 80% | Post-emergence action against VERPE in % (Veronica persica [25]; 20 g/ha): 80% | Post-emergence action against VERPE in % (Veronica persica [25]; 80 g/ha): 100% | Pre-emergence action against AMARE (Amaranthus retroflexus [26]; 20 g/ha): 90% | Pre-emergence action against AMARE (Amaranthus retroflexus [26]; 80 g/ha): 100% | Pre-emergence action against AMARE (Amaranthus retroflexus [26]; 320 g/ha): 100% | Herbicidal action against AMARE (Amaranthus retroflexus [26]; 20 g a.i./ha): 90 | Herbicidal action against AMARE (Amaranthus retroflexus [26]; 80 g a.i./ha): 100 | Pre-emergence action against CYPES (Cyperus esculentus [27]; 20 g/ha): 80% | Pre-emergence action against CYPES (Cyperus esculentus [27]; 80 g/ha): 100% | Pre-emergence action against CYPES (Cyperus esculentus [27]; 320 g/ha): 100% | Herbicidal action against CYPES (Cyperus esculentus [27]; 20 g a.i./ha): 80 | Herbicidal action against CYPES (Cyperus esculentus [27]; 80 g a.i./ha): 100 | Post-emergence action against POLCO in % (Polygonum convolvulus [28]): 90%
